Test system: T1, laccase of Aspergillus sp. HB_RZ4
T1 construct: native extracellular enzyme purified from culture supernatant (ammonium sulfate, DEAE-cellulose, Sephadex G-100); about 62 kDa by SDS-PAGE
Assay: ABTS oxidation at […] nm, Michaelis-Menten and Lineweaver-Burk
Format: biochemical
Settings: apparent Km; ABTS 10-200 mM; assay buffer 100 mM sodium acetate pH 4.0; free enzyme

SMILES: CCn1c(=NN=c2sc3cc(S(=O)(=O)O)ccc3n2CC)sc2cc(S(=O)(=O)O)ccc21 [ABTS, 2,2’-azino-bis (3-ethylbenzothiazoline 6-sulphonic acid)]
- Km: 26.8 mM

Reference: doi:10.1101/2020.02.20.957365v1, “Tree bark scrape fungus: A potential source of laccase for application in bioremediation of non-textile dyes” (biorxiv, 2020)
